According to paper PMC4657098, “A Review of the Updated Pharmacophore for the Alpha 5 GABA(A) Benzodiazepine Receptor Model” (International Journal of Medicinal Chemistry, 2015):
pKi: −log10 of the molar value. Read-outs that look alike come from different tables or passages of the source.

Key:
α4β3γ2 GABAA/BzR = biological target: T1, α4β3γ2 GABAA/BzR (Homo sapiens, UniProt P18507+P48169); assay: biochemical; assay type: binding
T1 construct: expressed in transfected cells; host or cells: LTK cells (given for XLi-093 only)

α1β3γ2 GABAA/BzR [1] = biological target: T2, α1β3γ2 GABAA/BzR (Homo sapiens, UniProt P14867+P18507); assay: Competition binding to HEK cell membranes, α1β3γ2; design: expressed in transfected cells
α2β3γ2 GABAA/BzR [2] = biological target: T3, α2β3γ2 GABAA/BzR (Homo sapiens, UniProt P18507+P47869); assay: Competition binding to HEK cell membranes, α2β3γ2; design: expressed in transfected cells
α3β3γ2 GABAA/BzR [3] = biological target: T4, α3β3γ2 GABAA/BzR (Homo sapiens, UniProt P18507+P34903); assay: Competition binding to HEK cell membranes, α3β3γ2; design: expressed in transfected cells
α5β3γ2 GABAA/BzR [4] = biological target: T5, α5β3γ2 GABAA/BzR (Homo sapiens, UniProt P18507+P31644); assay: Competition binding to HEK cell membranes, α5β3γ2; design: expressed in transfected cells
α6β3γ2 GABAA/BzR = α6β3γ2 GABAA/BzR (Homo sapiens, UniProt P18507+Q16445); assay: Competition binding to HEK cell membranes, α6β3γ2; design: expressed in transfected cells
α1β3γ2 GABAA/BzR [5] = biological target: T2, α1β3γ2 GABAA/BzR; design: expressed in transfected cells; host or cells: LTK cells (given for XLi-093 only); conditions: cited from earlier work
α2β3γ2 GABAA/BzR [6] = biological target: T3, α2β3γ2 GABAA/BzR; design: expressed in transfected cells; host or cells: LTK cells (given for XLi-093 only); conditions: read-out: Affinity Ki α2; cited from earlier work
α3β3γ2 GABAA/BzR [7] = biological target: T4, α3β3γ2 GABAA/BzR; design: expressed in transfected cells; host or cells: LTK cells (given for XLi-093 only); conditions: read-out: Affinity Ki α3; cited from earlier work
α5β3γ2 GABAA/BzR [8] = biological target: T5, α5β3γ2 GABAA/BzR; design: expressed in transfected cells; host or cells: LTK cells (given for XLi-093 only); conditions: cited from earlier work

| SMILES | pKi (α4β3γ2 GABAA/BzR; read-out: Ki α4) | pKi (α1β3γ2 GABAA/BzR [1]; read-out: Ki α1) | pKi (α2β3γ2 GABAA/BzR [2]; read-out: Ki α2) | pKi (α3β3γ2 GABAA/BzR [3]; read-out: Ki α3) | pKi (α5β3γ2 GABAA/BzR [4]; read-out: Ki α5) | pKi (α6β3γ2 GABAA/BzR; read-out: Ki α6) | other results |
| --- | --- | --- | --- | --- | --- | --- | --- |
| C#Cc1ccc2[nH]c3cnc(C(=O)OCC(F)(F)F)cc3c2c1 [WY-B-26-2] |  |  |  |  |  |  | pKi (α4β3γ2 GABAA/BzR): 5.70; pKi (α1β3γ2 GABAA/BzR [1]; Ki α1): 8.35; pKi (α2β3γ2 GABAA/BzR [2]; Ki α2): 7.35; pKi (α3β3γ2 GABAA/BzR [3]; Ki α3): 7.37; pKi (α5β3γ2 GABAA/BzR [4]; Ki α5): 6.91; pKi (α6β3γ2 GABAA/BzR; Ki α6): 5.70; pKi (α1β3γ2 GABAA/BzR [5]; read-out: Affinity Ki α1): 8.35; pKi (α2β3γ2 GABAA/BzR [6]): 7.35; pKi (α3β3γ2 GABAA/BzR [7]): 7.37; pKi (α5β3γ2 GABAA/BzR [8]; read-out: Affinity Ki α5): 6.91 |
| COc1ccc2c(c1)C(=O)N1CCC1c1c(C(=O)OC(C)(C)C)ncn1-2 (stereo not shown) [CM-D45 C19H21N3O4] | 9.82 | 7.04 | 7.18 | 7.52 | 8.78 | 9.64 |  |
| CCC(C)OC(=O)c1ncn2c1C1CCCN1C(=O)c1cc(F)ccc1-2 (stereo not shown) [CM-B44] | 6.42 | 7.49 | 7.37 | 7.92 | 8.37 | 6.31 |  |
| C#Cc1ccc2c(c1)C(c1ccccc1)=NCc1c(C(=O)OCCCOC(=O)c3ncn4c3CN=C(c3ccccc3)c3cc(C#C)ccc3-4)ncn1-2 [compound 63, 1,3-Bis(8-acetylenyl-6-phenyl-4H-benzo[f]imidazo[1,5-a][1,4]diazepine-3-carboxy) propyl diester] |  |  |  |  |  |  | pKi (α4β3γ2 GABAA/BzR): 5.30; pKi (α1β3γ2 GABAA/BzR [1]; Ki α1): 6.63; pKi (α2β3γ2 GABAA/BzR [2]; Ki α2): 8.13; pKi (α3β3γ2 GABAA/BzR [3]; Ki α3): 6.57; pKi (α5β3γ2 GABAA/BzR [4]; Ki α5): 6.71; pKi (α6β3γ2 GABAA/BzR; Ki α6): 5.30 |
| CCC(OC(=O)c1ncn2c1C1CCCN1C(=O)c1cc(Br)ccc1-2)C(F)(F)F (stereo not shown) [MMB-II-87] | 6.96 | 6.70 | 6.48 | 6.97 | 8.27 | 6.48 |  |
| C#Cc1ccc2c(c1)C(=O)N(C)Cc1c(C(=O)OCC)ncn1-2 [RY-080 C17H15N3O3] |  |  |  |  |  |  | pKi (α4β3γ2 GABAA/BzR): 8.28; pKi (α1β3γ2 GABAA/BzR [1]; Ki α1): 7.55; pKi (α2β3γ2 GABAA/BzR [2]; Ki α2): 7.67; pKi (α3β3γ2 GABAA/BzR [3]; Ki α3): 7.59; pKi (α5β3γ2 GABAA/BzR [4]; Ki α5): 9.31; pKi (α6β3γ2 GABAA/BzR; Ki α6): 7.54 |
| CN1Cc2c(C(=O)OC(C)(C)C)ncn2-c2ccc(C#C[Si](C)(C)C)cc2C1=O [RY-023 C22H27N3O3Si] | 8.11 | 6.71 | 6.85 | 6.59 | 8.58 | 7.23 |  |
| CC(C)(C)OC(=O)c1cc2c(cn1)[nH]c1ccc(I)cc12 [CM-A100] | 6.00 | 7.84 | 7.35 | 6.91 | 7.19 | 6.00 |  |
| COc1ccc2c(c1)C(=O)N1CCCC1c1c(C(=O)OCC(C)C)ncn1-2 (stereo not shown) [CM-E11] | 6.40 | 6.48 | 6.51 | 6.79 | 7.85 | 6.12 |  |
| CCC(OC(=O)c1ncn2c1C1CCCN1C(=O)c1cc(F)ccc1-2)C(F)(F)F (mixture of isomers) [CM-B47] | 5.70 | 7.49 | 7.20 | 7.47 | 8.36 | 6.14 |  |
| COc1ccc2c(c1)C(=O)N1CCC[C@H]1c1c(C(=O)OCc3ccccc3)ncn1-2 [CM-E10] | 6.67 | 7.64 | 7.59 | 7.85 | 9.29 | 7.02 |  |
| CCC(OC(=O)c1ncn2c1C1CCCN1C(=O)c1cc(Br)ccc1-2)C(F)(F)F (mixture of isomers) [CM-B34] | 6.94 | 6.33 | 6.35 | 6.65 | 7.77 | 6.76 |  |
| C#Cc1ccc2c(c1)C(c1ccccc1F)=NC(C)C(=O)N2C (stereo not shown) [OMB-19] | 5.48 | 7.66 | 8.34 | 7.70 | 8.46 | 7.40 |  |
| CC[C@H](C)OC(=O)c1ncn2c1[C@@H]1CCCN1C(=O)c1cc(F)ccc1-2 [CM-B44 (ss)] | 6.42 | 7.49 | 7.37 | 7.92 | 8.37 | 6.31 |  |
| C#Cc1ccc2c(c1)C(=O)N1CCC[C@H]1c1c(-c3nc(C)no3)ncn1-2 [compound 7] |  |  |  |  |  |  | pKi (α1β3γ2 GABAA/BzR [5]; Figure 4, read-out: Ki α1): < 7.05; pKi (α5β3γ2 GABAA/BzR [8]; Figure 4, read-out: Ki α5): 8.43 |
| CCC(OC(=O)c1ncn2c1C1CCCN1C(=O)c1cc(Cl)ccc1-2)C(F)(F)F (mixture of isomers) [CM-B45] | 6.58 | 6.64 | 6.25 | 6.47 | 7.82 | 6.64 |  |
| O=C(OCC(F)(F)F)c1cc2c(cn1)[nH]c1ccccc12 [MMB-II-74] | 6.30 | 8.52 | 7.61 | 7.38 | 6.90 | 6.00 |  |

| SMILES | pKi (α4β3γ2 GABAA/BzR; read-out: Ki α4) | pKi (α1β3γ2 GABAA/BzR [1]; read-out: Ki α1) | pKi (α2β3γ2 GABAA/BzR [2]; read-out: Ki α2) | pKi (α3β3γ2 GABAA/BzR [3]; read-out: Ki α3) | pKi (α5β3γ2 GABAA/BzR [4]; read-out: Ki α5) | pKi (α6β3γ2 GABAA/BzR; read-out: Ki α6) | other results |
| --- | --- | --- | --- | --- | --- | --- | --- |
| COc1ccc2c(c1)C(=O)N1CC[C@H]1c1c(C(=O)OC(C)(C)C)ncn1-2 [CM-D45] | 9.82 | 7.04 | 7.18 | 7.52 | 8.78 | 9.64 |  |
| CC(C)(C)CC(=O)c1cc2c(cn1)[nH]c1ccccc12 [CM-A77] | 6.00 | 7.94 | 7.28 | 6.98 | 7.37 | 6.00 |  |
| COc1ccc2c(c1)C(=O)N1CCCC1c1c(C(=O)OC(C)C)ncn1-2 (stereo not shown) [CM-E09b] | 7.26 | 7.70 | 7.66 | 7.72 | 9.35 | 7.16 |  |
| O=C(OC(C(F)(F)F)C(F)(F)F)c1ncn2c1C1CCCN1C(=O)c1ccccc1-2 (stereo not shown) [MMB-III-018] | 5.46 | 6.93 | 6.85 | 7.11 | 7.85 | 6.01 |  |
| CC(C)(C)OC(=O)c1cc2c(cn1)[nH]c1ccc(-c3ccccc3)cc12 [WYS15] |  | 8.44 | 8.69 | 7.35 | 7.12 |  | pKi (α1β3γ2 GABAA/BzR [1]; Ki α1): 8.44; pKi (α2β3γ2 GABAA/BzR [2]; Ki α2): 8.69; pKi (α3β3γ2 GABAA/BzR [3]; Ki α3): 7.35; pKi (α5β3γ2 GABAA/BzR [4]; Ki α5): 7.12; pKi (α6β3γ2 GABAA/BzR; Ki α6): 5.30; pKi (α1β3γ2 GABAA/BzR [5]; read-out: Affinity Ki α1): 8.44; pKi (α2β3γ2 GABAA/BzR [6]): 8.69; pKi (α3β3γ2 GABAA/BzR [7]): 7.35; pKi (α5β3γ2 GABAA/BzR [8]; read-out: Affinity Ki α5): 7.12 |
| CCOC(=O)c1ncn2c1C1CCN1C(=O)c1cc(OC)ccc1-2 (stereo not shown) [CM-D44] | 9.48 | 7.46 | 7.25 | 7.68 | 9.24 | 9.04 |  |
| CC(OC(=O)c1ncn2c1C1CCCN1C(=O)c1ccccc1-2)C(F)(F)F (stereo not shown) [MMB-III-14] | 6.48 | 7.89 | 7.89 | 8.16 | 8.96 | 6.48 |  |
| CCOC(=O)c1cc2c(cn1)[nH]c1ccc(I)cc12 [CM-B01] | 6.00 | 8.32 | 7.51 | 7.47 | 6.54 | 6.00 |  |
| O=c1c2c[nH]c3ccccc3c-2nn1-c1ccccc1 [QH-II-090] |  | 10.30 | 10.10 | 9.92 | 9.60 | 7.77 |  |
| CC[C@H](C)OC(=O)c1ncn2c1[C@@H]1CCCN1C(=O)c1cc(I)ccc1-2 [CM-B31i (ss)] | 7.74 | 7.05 | 6.74 | 7.11 | 8.31 |  |  |
| COc1ccc2c(c1)C(=O)N1CCC[C@H]1c1c(C(=O)OCC(F)(F)F)ncn1-2 [CM-E09a] | 6.31 | 6.75 | 6.72 | 6.91 | 8.04 | 6.14 |  |
| Oc1ccc2c(c1)[nH]c1c2ncc2[nH]c3ccccc3c21 [MLT-II-34] |  | 8.15 | 7.80 | 7.65 | 6.80 | 6.00 |  |
| CC(C)OC(=O)c1ncn2c1[C@@H]1CCCN1C(=O)c1ccccc1-2 [MMB-III-016] | 5.97 | 8.52 | 8.71 | 8.70 | 9.59 | 6.68 |  |
| CC(C)OC(=O)c1ncn2c1[C@@H]1CCCN1C(=O)c1cc(Br)ccc1-2 [MMB-II-90] | 8.05 | 7.70 | 7.62 | 8.24 | 9.60 | 7.44 |  |
| C#Cc1ccc2c(c1)C(c1cccs1)=NCc1c(C(=O)OCC)ncn1-2 [JC221] |  | 6.97 | 7.31 | 6.74 | 8.11 | 6.44 |  |
| C#Cc1ccc2c(c1)C(c1ccccc1F)=NCC(=O)N2C [OMB-18] | 5.76 | 8.41 | 8.92 | 8.47 | 9.10 | 8.30 |  |
| O=C(OC(C(F)(F)F)C(F)(F)F)c1ncn2c1C1CCCN1C(=O)c1ccccc1-2 (stereo not shown) [MMB-III-18] | 5.46 |  | 6.85 | 7.11 | 7.85 |  |  |
